{"source": "patent US4500544A", "about": "“Ascochlorin derivatives, and pharmaceutical composition containing the same” (Chugai Seiyaku Kabushiki Kaisha, priority 1981, dated 1985)", "data": [{"system": "not listed separately", "experiment": "serum lipid and glucose in normal mice fed the compounds (Example 25)", "assay_type": "in vivo, ddY male mice", "details": "0.05% in diet, one week, n=8; control 25.3 ± 1.62", "procedure": "(§1) Five-week-old ddY male mice were given for one week a diet (CE-2 from Nippon Crea Co., Ltd.) containing 0.05% of the compounds of the present invention indicated in Table 7. On the 7th day, the mice were sacrificed and the levels of lipid and glucose in their serum were measured.", "units": {"free fatty acid in serum": "mg/dL"}, "values": [{"smiles": "COC(=O)c1ccc(C(=O)Oc2c(Cl)c(C)c(C=O)c(O)c2C/C=C(C)/C=C/C2(C)C(C)CCC(=O)C2C)cc1", "note": "(stereo not drawn) [Example 16, 4-O--(p-methoxycarbonyl)-benzoyl ascochlorin]", "free fatty acid in serum": "21.8 ± 0.69"}, {"smiles": "CCN(CC)C(=O)Oc1c(Cl)c(C)c(C=O)c(O)c1C/C=C(C)/C=C/C1(C)C(C)CCC(=O)C1C", "note": "(stereo not drawn) [Example 13, 4-O--diethylcarbamoyl ascochlorin]", "free fatty acid in serum": "26.4 ± 0.58"}]}, {"system": "not listed separately", "experiment": "serum lipid and glucose in normal mice fed the compounds (Example 25)", "assay_type": "in vivo, ddY male mice", "details": "0.05% in diet, one week, n=8; control 134.7 ± 8.6", "procedure": "as §1", "units": {"neutral fat in serum": "mg/dL"}, "values": [{"smiles": "COC(=O)c1ccc(C(=O)Oc2c(Cl)c(C)c(C=O)c(O)c2C/C=C(C)/C=C/C2(C)C(C)CCC(=O)C2C)cc1", "note": "(stereo not drawn) [Example 16, 4-O--(p-methoxycarbonyl)-benzoyl ascochlorin]", "neutral fat in serum": "136.3 ± 8.1"}, {"smiles": "CCN(CC)C(=O)Oc1c(Cl)c(C)c(C=O)c(O)c1C/C=C(C)/C=C/C1(C)C(C)CCC(=O)C1C", "note": "(stereo not drawn) [Example 13, 4-O--diethylcarbamoyl ascochlorin]", "neutral fat in serum": "110.2 ± 16.4"}]}, {"system": "not listed separately", "experiment": "serum lipid and glucose in normal mice fed the compounds (Example 25)", "assay_type": "in vivo, ddY male mice", "details": "0.05% in diet, one week, n=8; control 135.9 ± 4.8", "procedure": "as §1", "units": {"total cholesterol in serum": "mg/dL"}, "values": [{"smiles": "COC(=O)c1ccc(C(=O)Oc2c(Cl)c(C)c(C=O)c(O)c2C/C=C(C)/C=C/C2(C)C(C)CCC(=O)C2C)cc1", "note": "(stereo not drawn) [Example 16, 4-O--(p-methoxycarbonyl)-benzoyl ascochlorin]", "total cholesterol in serum": "129.6 ± 3.9"}, {"smiles": "CCN(CC)C(=O)Oc1c(Cl)c(C)c(C=O)c(O)c1C/C=C(C)/C=C/C1(C)C(C)CCC(=O)C1C", "note": "(stereo not drawn) [Example 13, 4-O--diethylcarbamoyl ascochlorin]", "total cholesterol in serum": "121.2 ± 5.0"}]}, {"system": "not listed separately", "experiment": "serum lipid and glucose in normal mice fed the compounds (Example 25)", "assay_type": "in vivo, ddY male mice", "details": "0.05% in diet, one week, n=8; control 293.0 ± 13.3", "procedure": "as §1", "units": {"serum glucose": "mg/dL"}, "values": [{"smiles": "COC(=O)c1ccc(C(=O)Oc2c(Cl)c(C)c(C=O)c(O)c2C/C=C(C)/C=C/C2(C)C(C)CCC(=O)C2C)cc1", "note": "(stereo not drawn) [Example 16, 4-O--(p-methoxycarbonyl)-benzoyl ascochlorin]", "serum glucose": "229.9 ± 17.0"}, {"smiles": "CCN(CC)C(=O)Oc1c(Cl)c(C)c(C=O)c(O)c1C/C=C(C)/C=C/C1(C)C(C)CCC(=O)C1C", "note": "(stereo not drawn) [Example 13, 4-O--diethylcarbamoyl ascochlorin]", "serum glucose": "215.2 ± 5.7"}]}, {"system": "not listed separately", "experiment": "serum lipid and glucose in normal mice fed the compounds (Example 25)", "assay_type": "in vivo, ddY male mice", "details": "vs control", "procedure": "as §1", "units": {"serum glucose, change": "%", "total cholesterol in serum, change": "%"}, "values": [{"smiles": "COC(=O)c1ccc(C(=O)Oc2c(Cl)c(C)c(C=O)c(O)c2C/C=C(C)/C=C/C2(C)C(C)CCC(=O)C2C)cc1", "note": "(stereo not drawn) [Example 16, 4-O--(p-methoxycarbonyl)-benzoyl ascochlorin]", "free fatty acid in serum, change": "-15.9%", "neutral fat in serum, change": "+1.2%", "serum glucose, change": -21.5, "total cholesterol in serum, change": -4.6}, {"smiles": "CCN(CC)C(=O)Oc1c(Cl)c(C)c(C=O)c(O)c1C/C=C(C)/C=C/C1(C)C(C)CCC(=O)C1C", "note": "(stereo not drawn) [Example 13, 4-O--diethylcarbamoyl ascochlorin]", "free fatty acid in serum, change": "+4.3%", "neutral fat in serum, change": "-18.2%", "serum glucose, change": -26.6, "total cholesterol in serum, change": -10.8}]}, {"system": "not listed separately", "experiment": "plasma glucose and cholesterol in normal mice fed the compounds (Example 19)", "assay_type": "in vivo, ddY male mice", "details": "0.1% in diet, one week, n=10; control 135.9 ± 4.8", "procedure": "(§2) Five-week-old ddY male mice (n=10) were given for one week a diet (CE-2 from Nippon Crea Co., Ltd.) containing 0.1% of the sample compounds of the present invention indicated in Table 1. Blood was then withdrawn from the heart and the glucose and cholesterol levels in plasma were measured.", "units": {"total cholesterol in plasma": "mg/dL"}, "values": [{"smiles": "CC(/C=C/C1(C)C(C)CCC(=O)C1C)=C\\Cc1c(O)c(C=O)c(C)c(Cl)c1OCCCC(=O)O", "note": "(stereo not drawn) [Example 10]", "total cholesterol in plasma": "115.7 ± 5.0"}, {"smiles": "CCOC(=O)C(C)Oc1c(Cl)c(C)c(C=O)c(O)c1C/C=C(C)/C=C/C1(C)C(C)CCC(=O)C1C", "note": "(stereo not drawn) [Example 5, 4-O-(1-ethoxycarbonylethyl) ester of ascochlorin]", "total cholesterol in plasma": "109.7 ± 5.0"}, {"smiles": "CC(/C=C/C1(C)C(C)CCC(=O)C1C)=C\\Cc1c(O)c(C=O)c(C)c(Cl)c1OC(C)C(=O)O", "note": "(stereo not drawn) [Example 9]", "total cholesterol in plasma": "106.7 ± 5.5"}, {"smiles": "CCOC(=O)CCCOc1c(Cl)c(C)c(C=O)c(O)c1C/C=C(C)/C=C/C1(C)C(C)CCC(=O)C1C", "note": "(stereo not drawn) [Example 8, 4-O-(3-ethoxycarbonyl)propyl ester of ascochlorin]", "total cholesterol in plasma": "115.0 ± 6.6"}]}, {"system": "not listed separately", "experiment": "plasma glucose and cholesterol in normal mice fed the compounds (Example 19)", "assay_type": "in vivo, ddY male mice", "details": "0.1% in diet, one week, n=10; control 271.6 ± 0.4", "procedure": "as §2", "units": {"plasma glucose": "mg/dL"}, "values": [{"smiles": "CC(/C=C/C1(C)C(C)CCC(=O)C1C)=C\\Cc1c(O)c(C=O)c(C)c(Cl)c1OCCCC(=O)O", "note": "(stereo not drawn) [Example 10]", "plasma glucose": "220.1 ± 6.8"}, {"smiles": "CCOC(=O)C(C)Oc1c(Cl)c(C)c(C=O)c(O)c1C/C=C(C)/C=C/C1(C)C(C)CCC(=O)C1C", "note": "(stereo not drawn) [Example 5, 4-O-(1-ethoxycarbonylethyl) ester of ascochlorin]", "plasma glucose": "205.7 ± 8.2"}, {"smiles": "CC(/C=C/C1(C)C(C)CCC(=O)C1C)=C\\Cc1c(O)c(C=O)c(C)c(Cl)c1OC(C)C(=O)O", "note": "(stereo not drawn) [Example 9]", "plasma glucose": "210.0 ± 10.7"}, {"smiles": "CCOC(=O)CCCOc1c(Cl)c(C)c(C=O)c(O)c1C/C=C(C)/C=C/C1(C)C(C)CCC(=O)C1C", "note": "(stereo not drawn) [Example 8, 4-O-(3-ethoxycarbonyl)propyl ester of ascochlorin]", "plasma glucose": "255.5 ± 17.0"}]}, {"system": "Ehrlich ascites tumor", "experiment": "life span of mice with Ehrlich ascites tumor (Example 22)", "assay_type": "in vivo, ddY male mice", "details": "2 mg i.p. once a day for 7 days, n=8; control 15.5 ± 2.12", "procedure": "(§3) 10^6 Cells of Ehrlich ascites tumor were transplanted in five-week-old ddY male mice and from the 24th hour onward, they were injected intraperitoneally the compounds indicated in Table 4 of the present invention once a day for 7 consecutive days. Each injection contained 2 mg of the test compounds. The efficacy of the compounds is indicated in Table 4 in terms of their life span.", "units": {"Days survived": "days"}, "values": [{"smiles": "CC(/C=C/C1(C)C(C)CCC(=O)C1C)=C\\Cc1c(O)c(C=O)c(C)c(Cl)c1OCCCC(=O)O", "note": "(stereo not drawn) [Example 10]", "Days survived": "19.3 ± 10.12"}, {"smiles": "CCOC(=O)C(C)Oc1c(Cl)c(C)c(C=O)c(O)c1C/C=C(C)/C=C/C1(C)C(C)CCC(=O)C1C", "note": "(stereo not drawn) [Example 5, 4-O-(1-ethoxycarbonylethyl) ester of ascochlorin]", "Days survived": "> 19.1 ± 1.97"}, {"smiles": "CC(/C=C/C1(C)C(C)CCC(=O)C1C)=C\\Cc1c(O)c(C=O)c(C)c(Cl)c1OC(C)C(=O)O", "note": "(stereo not drawn) [Example 9]", "Days survived": "> 28.8 ± 3.54"}]}, {"system": "Ehrlich ascites tumor", "experiment": "life span of mice with Ehrlich ascites tumor (Example 22)", "assay_type": "in vivo, ddY male mice", "details": "2 mg i.p. once a day for 7 days; control 100", "procedure": "as §3", "units": {"T/0 (%)": "%"}, "values": [{"smiles": "CC(/C=C/C1(C)C(C)CCC(=O)C1C)=C\\Cc1c(O)c(C=O)c(C)c(Cl)c1OCCCC(=O)O", "note": "(stereo not drawn) [Example 10]", "T/0 (%)": 125}, {"smiles": "CCOC(=O)C(C)Oc1c(Cl)c(C)c(C=O)c(O)c1C/C=C(C)/C=C/C1(C)C(C)CCC(=O)C1C", "note": "(stereo not drawn) [Example 5, 4-O-(1-ethoxycarbonylethyl) ester of ascochlorin]", "T/0 (%)": 123}, {"smiles": "CC(/C=C/C1(C)C(C)CCC(=O)C1C)=C\\Cc1c(O)c(C=O)c(C)c(Cl)c1OC(C)C(=O)O", "note": "(stereo not drawn) [Example 9]", "T/0 (%)": 186}]}]}
